According to ChEMBL document CHEMBL6092221, “Discovery of a Novel Macrocyclic Noncovalent CDK7 Inhibitor for Cancer Therapy” (J Med Chem, 2024):

Assays:
[1] = Half life in female Balb/c nude mouse at 5 mg/kg, po; format: ADME, organism-based; settings: in vivo
[2] = Oral bioavailability in mouse at 5 mg/kg; format: ADME, organism-based; settings: in vivo
[3] = Drug concentration in rat small intestine at 5 mg/kg, po measured after 8 hrs; format: ADME, organism-based; settings: read-out: Ct
[4] = Drug concentration in rat plasma at 5 mg/kg, po measured after 8 hrs; format: ADME, organism-based
[5] = Half life in Sprague-Dawley rat at 30 mg/kg, po; format: ADME, organism-based; settings: in vivo
[6] = target: Homeodomain-interacting protein kinase 4 (Homo sapiens, UniProt Q8NE63); test: Inhibition of HIPK4 (unknown origin)
Cytochrome P450 2C9 = Cytochrome P450 2C9 (Homo sapiens, UniProt P11712); test: Inhibition of CYP2C9 (unknown origin); format: ADME
Mus musculus = test: Downregulation of Myc protein in female Balb/c nude mouse xenografted with human HCC70 cells administered once daily for 7 days; format: functional; settings: dose 2-10 mg/kg, time 7.0 day
HCC70 [7] = test: Antitumor activity against human HCC70 cells xenografted in female nu/nu mouse assessed as tumor growth inhibition at 1 mg/kg, po administered once daily and measured for 4 weeks; format: functional; settings: HCC70, 672 h, read-out: TGI
HCC70 [8] = test: Antitumor activity against human HCC70 cells xenografted in female nu/nu mouse assessed as tumor growth inhibition at 10 mg/kg, po administered once daily and measured for 4 weeks; format: functional; settings: HCC70, 672 h, read-out: TGI
[9] = Half life in human HCC70 cells xenografted in female nu/nu mouse plasma at 3 mg/kg, po administered once daily; format: ADME, organism-based
[10] = Cmax in human HCC70 cells xenografted in female nu/nu mouse plasma at 3 mg/kg, po administered once daily; format: ADME, organism-based
[11] = Cmax in human HCC70 cells xenografted in female nu/nu mouse plasma at 10 mg/kg, po administered once daily; format: ADME, organism-based
OVCAR-3 = test: cells; settings: Homo sapiens, OVCAR-3, 72 h
Description: Antiproliferative activity against human OVCAR-3 cells assessed as inhibition of cell proliferation incubated for 72 hrs by celltiter-glo assay

[12] = target: Mitogen-activated protein kinase 7 (Homo sapiens, UniProt Q13164); test: Inhibition of Erk5 (unknown origin) at 200 nM relative to control; values are per cent of control
[13] = target: Homeodomain-interacting protein kinase 4 (Homo sapiens) (UniProt Q8NE63); test: Inhibition of HIPK4 (unknown origin) at 200 nM relative to control; values are per cent of control
[14] = target: Serine/threonine-protein kinase TAO1 (Homo sapiens) (UniProt Q7L7X3); test: Inhibition of TAOK1 (unknown origin) at 200 nM relative to control; values are per cent of control
[15] = target: Cyclin-dependent kinase 4/cyclin D1 (Homo sapiens) (UniProt P11802+P24385); test: Inhibition of CDK4/CyclinD1 (unknown origin) at 200 nM relative to control; values are per cent of control
CDK18/Cyclin Y = CDK18/Cyclin Y (Homo sapiens, UniProt Q07002+Q8ND76); test: Inhibition of CDK18/Cyclin Y (unknown origin) at 200 nM relative to control; values are per cent of control

Cytochrome P450 2C9, sequence (P11712 whole entry): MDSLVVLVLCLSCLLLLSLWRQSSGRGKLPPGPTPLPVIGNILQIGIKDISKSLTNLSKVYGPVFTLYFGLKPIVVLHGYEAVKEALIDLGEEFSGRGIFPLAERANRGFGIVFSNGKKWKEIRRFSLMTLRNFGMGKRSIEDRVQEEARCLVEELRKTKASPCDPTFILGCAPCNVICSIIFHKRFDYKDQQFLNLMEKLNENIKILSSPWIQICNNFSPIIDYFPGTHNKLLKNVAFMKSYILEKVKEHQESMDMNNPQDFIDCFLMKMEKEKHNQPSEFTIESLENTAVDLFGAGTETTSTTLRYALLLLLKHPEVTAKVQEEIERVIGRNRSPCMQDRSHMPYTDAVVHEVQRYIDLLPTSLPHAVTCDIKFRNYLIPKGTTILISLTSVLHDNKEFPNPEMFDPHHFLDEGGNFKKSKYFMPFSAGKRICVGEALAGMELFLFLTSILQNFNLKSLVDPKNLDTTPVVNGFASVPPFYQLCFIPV
Serine/threonine-protein kinase TAO1 (Homo sapiens), sequence (Q7L7X3 whole entry): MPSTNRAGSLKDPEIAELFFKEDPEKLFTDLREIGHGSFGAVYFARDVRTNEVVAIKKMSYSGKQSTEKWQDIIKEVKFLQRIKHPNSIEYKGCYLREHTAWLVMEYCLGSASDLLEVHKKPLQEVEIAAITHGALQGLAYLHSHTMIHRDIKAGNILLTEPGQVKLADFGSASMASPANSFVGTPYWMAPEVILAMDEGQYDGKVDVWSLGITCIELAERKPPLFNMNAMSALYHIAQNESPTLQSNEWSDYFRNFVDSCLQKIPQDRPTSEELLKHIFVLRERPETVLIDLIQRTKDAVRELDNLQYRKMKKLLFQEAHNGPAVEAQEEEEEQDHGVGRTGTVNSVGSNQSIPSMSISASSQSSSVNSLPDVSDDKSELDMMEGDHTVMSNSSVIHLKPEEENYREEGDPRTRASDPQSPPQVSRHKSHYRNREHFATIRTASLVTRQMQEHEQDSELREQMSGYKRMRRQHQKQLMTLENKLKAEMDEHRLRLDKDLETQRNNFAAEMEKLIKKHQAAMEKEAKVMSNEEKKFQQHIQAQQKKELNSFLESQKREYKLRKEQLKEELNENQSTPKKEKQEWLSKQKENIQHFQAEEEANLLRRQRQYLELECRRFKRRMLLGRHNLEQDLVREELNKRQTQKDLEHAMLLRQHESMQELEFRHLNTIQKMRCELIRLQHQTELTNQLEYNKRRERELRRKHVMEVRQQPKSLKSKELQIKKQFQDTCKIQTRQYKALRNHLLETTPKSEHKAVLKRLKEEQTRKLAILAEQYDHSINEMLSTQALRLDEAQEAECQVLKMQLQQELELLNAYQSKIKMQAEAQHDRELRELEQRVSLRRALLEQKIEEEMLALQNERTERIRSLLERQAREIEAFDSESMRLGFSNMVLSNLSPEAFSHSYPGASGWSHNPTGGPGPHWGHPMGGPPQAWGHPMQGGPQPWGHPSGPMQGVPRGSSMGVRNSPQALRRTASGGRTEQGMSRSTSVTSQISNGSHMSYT
Homeodomain-interacting protein kinase 4 (Homo sapiens), sequence (Q8NE63 whole entry): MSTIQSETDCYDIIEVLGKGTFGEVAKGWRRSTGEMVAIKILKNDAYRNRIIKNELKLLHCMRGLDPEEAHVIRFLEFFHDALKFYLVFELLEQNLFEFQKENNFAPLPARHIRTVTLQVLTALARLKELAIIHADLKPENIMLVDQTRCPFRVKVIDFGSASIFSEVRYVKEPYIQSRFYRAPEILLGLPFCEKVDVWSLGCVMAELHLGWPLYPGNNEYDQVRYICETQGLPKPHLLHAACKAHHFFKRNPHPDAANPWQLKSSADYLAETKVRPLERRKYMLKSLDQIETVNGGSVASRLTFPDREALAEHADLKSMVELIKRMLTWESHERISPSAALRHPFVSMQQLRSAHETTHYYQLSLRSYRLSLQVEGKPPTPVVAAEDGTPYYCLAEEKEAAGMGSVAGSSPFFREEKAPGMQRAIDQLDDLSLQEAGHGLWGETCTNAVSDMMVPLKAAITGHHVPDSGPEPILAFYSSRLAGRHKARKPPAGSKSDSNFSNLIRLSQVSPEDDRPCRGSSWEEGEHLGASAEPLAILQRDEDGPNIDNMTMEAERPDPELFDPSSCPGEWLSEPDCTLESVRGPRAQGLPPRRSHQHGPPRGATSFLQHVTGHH
Homeodomain-interacting protein kinase 4, sequence (Q8NE63 whole entry): as above
Mitogen-activated protein kinase 7, sequence (Q13164 2-816 limits assumed): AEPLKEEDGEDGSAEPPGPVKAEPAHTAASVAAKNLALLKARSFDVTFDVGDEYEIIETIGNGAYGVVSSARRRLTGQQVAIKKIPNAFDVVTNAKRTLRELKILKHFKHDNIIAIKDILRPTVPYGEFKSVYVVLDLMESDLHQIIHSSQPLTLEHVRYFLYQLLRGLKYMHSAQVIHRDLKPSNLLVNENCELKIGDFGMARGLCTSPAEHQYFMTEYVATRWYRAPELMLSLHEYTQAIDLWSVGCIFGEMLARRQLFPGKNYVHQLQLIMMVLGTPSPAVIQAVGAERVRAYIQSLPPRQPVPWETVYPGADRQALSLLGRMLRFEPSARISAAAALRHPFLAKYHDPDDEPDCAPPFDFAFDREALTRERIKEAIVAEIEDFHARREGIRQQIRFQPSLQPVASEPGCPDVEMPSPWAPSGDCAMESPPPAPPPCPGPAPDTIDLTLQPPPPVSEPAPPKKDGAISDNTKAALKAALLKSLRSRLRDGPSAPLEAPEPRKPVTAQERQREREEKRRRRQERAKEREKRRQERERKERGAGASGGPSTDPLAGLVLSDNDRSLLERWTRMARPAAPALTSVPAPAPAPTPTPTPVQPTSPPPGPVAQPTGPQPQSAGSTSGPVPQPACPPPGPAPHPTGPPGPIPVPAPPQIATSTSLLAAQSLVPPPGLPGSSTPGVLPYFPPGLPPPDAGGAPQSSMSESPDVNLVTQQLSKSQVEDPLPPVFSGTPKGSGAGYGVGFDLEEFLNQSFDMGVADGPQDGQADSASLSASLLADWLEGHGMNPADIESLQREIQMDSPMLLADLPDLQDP

CN1CC(F)(F)CCN(C)[C@H]2CC[C@@H](C2)Nc2ncc(C(F)(F)F)c(n2)-c2c[nH]c3c(P(C)(C)=O)c(ccc23)C1=O
half-life [1]: 258 min
bioavailability [2]: 78.7%
concentration at 8 h [3]: 67 ng/g
concentration at 8 h [4]: 3.5 ng/mL
half-life [5]: 468 min
IC50 [6]: 55 nM
IC50 (Cytochrome P450 2C9): 41.9 µM
Activity (Mus musculus): Dose-dependent-effect
inhibition in vivo at 1 mg/kg (HCC70 [7]): 35.5%
inhibition in vivo at 10 mg/kg (HCC70 [8]): 175%
half-life [9]: 96 min
Cmax [10]: 130 ng/mL
Cmax [11]: 401 ng/mL
IC50 (OVCAR-3): 57 nM
residual activity [12]: 5.6%
residual activity [13]: 9.4%
residual activity [14]: 24%
residual activity [15]: 2.7%
residual activity (CDK18/Cyclin Y): 2.9%
